Measured values: patent US11279714B2, “Anti-infective compounds” (priority 2014, dated 2022)
Values after ≈ are worked out from the molar mass of the structure shown.

Columns and labels:
[1] = tested on: M. tuberculosis H37Rv expressing the green fluorescent protein (H37Rv-GFP); experiment: microbe, parasite or virus in culture; type: cell-based; details: Mycobacterium tuberculosis, H37RV, 120 h; read-out: QUM (MIC50)
[2] = tested on: Raw 264.7 cells infected with H37Rv-GFP; experiment: microbe, parasite or virus in culture; type: cell-based, M. tuberculosis; details: Mycobacterium tuberculosis, H37RV, 120 h; read-out: QIM (MIC50)

| Structure (SMILES) | MIC50 [1] [µM] | MIC50 [2] [µM] | melting point [°C] |
| --- | --- | --- | --- |
| CC(CNC(=O)c1ccc2nc(N3CCCCC3)sc2c1)c1ccccc1 (stereo not drawn) [Compound 1] | > 20 | > 20 | 196 |
| COc1ccc(NC(=O)c2cc3sc(N4CCCCC4)nc3s2)cc1 [Compound 35] | < 1 | < 1 | 235 |
| Cc1nc2cc(NC(=O)c3cc4sc(N5CCOCC5)nc4s3)ccc2o1 [Compound 83] | < 1 | < 1 | 268.3 |
| CC(C)(C)OC(=O)c1ccc(NC(=O)c2cc3sc(N4CCOCC4)nc3s2)cc1 [Compound 129] | 1 to 20 (≈ 0.446 to 8.91 µg/mL) | < 1 | 244 |
| O=C(c1cc2nc(N3CCCCC3)sc2s1)N1CCOCC1 [Compound 26] | > 20 | > 20 | 188 |
| COc1ccc(NC(=O)c2cc3sc(N4CC5CC4CN5C(=O)OC(C)(C)C)nc3s2)cc1 (stereo not drawn) [Compound 93] | > 20 | > 20 | 249 |
| Cc1nc2cc(NC(=O)c3cc4sc(N5CC(C)OC(C)C5)nc4s3)ccc2o1 (stereo not drawn) [Compound 180] | 1 to 20 (≈ 0.429 to 8.57 µg/mL) | < 1 | 274 |
| N#Cc1ccc(NC(=O)c2cc3sc(N4CCCCC4)nc3s2)cc1 [Compound 54] | < 1 | < 1 | 177 |
| COc1ccc(NC(=O)c2cc3sc(NC4CCCC4)nc3s2)cc1 [Compound 90] | < 1 | < 1 | 239.3 |
| O=C(Nc1ccc(F)c(F)c1)c1ccc2nc(N3CCCCC3)ccc2c1 [Compound 16] | > 20 | > 20 | 194 |
| O=C(Nc1ccc(-n2ccnc2)cc1)c1cc2sc(N3CCOCC3)nc2s1 [Compound 182] | > 20 | > 20 | 266 |
| COc1ccc(NC(=O)c2cc3sc(N4CCC(C(N)=O)CC4)nc3s2)cc1 [Compound 126] | 1 to 20 (≈ 0.417 to 8.33 µg/mL) | > 20 | 276.1 |
| Cc1ccc(-c2ccc(NC(=O)c3cc4sc(N5CCOCC5)nc4s3)cc2)cn1 [Compound 161] | > 20 | < 1 | 292 |
| Cn1cc(F)c(-c2ccc(NC(=O)c3cc4sc(N5CCOCC5)nc4s3)cc2)n1 [Compound 162] | 1 to 20 (≈ 0.444 to 8.87 µg/mL) | < 1 | 280.5 |
| O=C(Nc1ccc(F)cc1)c1cc2nc(N3CCCCC3)sc2s1 [Compound 8] | 1 to 20 (≈ 0.361 to 7.23 µg/mL) | 1 to 20 (≈ 0.361 to 7.23 µg/mL) | 218 |
| COc1ccc(NC(=O)c2cc3sc(C(C)C)nc3s2)cc1 [Compound 115] | 1 to 20 (≈ 0.332 to 6.65 µg/mL) | < 1 | 149 |
| Cc1nnc(-c2ccc(NC(=O)c3cc4sc(N5CCOCC5)nc4s3)cc2)o1 [Compound 103] | < 1 | < 1 | 319.1 |
| O=C(Nc1ccc(F)cc1)c1cc2sc(N3CCNCC3)nc2s1 [Compound 139] | 1 to 20 (≈ 0.362 to 7.25 µg/mL) | 1 to 20 (≈ 0.362 to 7.25 µg/mL) | 247.5 |
| COc1ccc(NC(=O)c2cc3nc(N4CCCCC4)sc3s2)cn1 [Compound 10] | > 20 | > 20 | 270 |
| COc1ccc(NC(=O)c2cc3sc(N4CCN5CCCC5C4)nc3s2)cc1 (stereo not drawn) [Compound 100] | 1 to 20 (≈ 0.415 to 8.29 µg/mL) | < 1 | 195 |
| COc1ccc(CN(c2nc3sc(C(=O)Nc4ccc(OC)cc4)cc3s2)C(C)C)cc1 [Compound 121] | > 20 | < 1 | 131 |
| COc1c(C(=O)Nc2ccc3oc(C)nc3c2)sc2nc(N3CCOCC3)sc12 [Compound 172] | > 20 | > 20 | 269 |

| Structure (SMILES) | MIC50 [1] [µM] | MIC50 [2] [µM] | melting point [°C] |
| --- | --- | --- | --- |
| Cc1nc2cc(CCNC(=O)c3cc4sc(N5CCOCC5)nc4s3)ccc2o1 [Compound 177] | 1 to 20 (≈ 0.429 to 8.57 µg/mL) | < 1 | 219.4 |
| COc1ncc(NC(=O)c2cc3nc(N4CCCCC4)sc3s2)cn1 [Compound 6] | 1 to 20 (≈ 0.375 to 7.51 µg/mL) | 1 to 20 (≈ 0.375 to 7.51 µg/mL) | 274 |
| COc1ccc(NC(=O)c2cc3ncsc3s2)cc1 [Compound 21] | > 20 | > 20 | 236 |
| O=C(Nc1cccc(Oc2ccccc2)c1)c1cc2sc(N3CCOCC3)nc2s1 [Compound 87] | 1 to 20 (≈ 0.438 to 8.75 µg/mL) | 1 to 20 (≈ 0.438 to 8.75 µg/mL) | 169.5 |
| CN(C)C(=O)C1CCN(c2nc3sc(C(=O)Nc4ccc5oc(-c6ccc(F)cc6)nc5c4)cc3s2)CC1 [Compound 171] | > 20 | < 1 | 323 |
| CN(C)C(=O)C1CCN(c2nc3sc(C(=O)Nc4ccc5oc(CCc6ccc(F)cc6)nc5c4)cc3s2)CC1 [Compound 197] | > 20 | < 1 | 259 |
| COc1ccc(OCCNC(=O)c2cc3sc(N4CCOCC4)nc3s2)cc1 [Compound 82] | > 20 | 1 to 20 (≈ 0.42 to 8.39 µg/mL) | 172.1 |
| O=C(Nc1ccc(F)cc1)c1cc2sc(N3CCOCC3)nc2s1 [Compound 99] | 1 to 20 (≈ 0.363 to 7.27 µg/mL) | < 1 | 240 |
| COc1ccc(OC(=O)c2ccc(NC(=O)c3cc4sc(N5CCOCC5)nc4s3)cc2)cc1 [Compound 111] | 1 to 20 (≈ 0.496 to 9.91 µg/mL) | < 1 | 302.6 |
| COc1ccc(NC(=O)c2cc3scnc3s2)cc1 [Compound 75] | 1 to 20 (≈ 0.29 to 5.81 µg/mL) | > 20 | 212 |
| N#Cc1ccc(NC(=O)c2cc3sc(N4CCOCC4)nc3s2)cc1 [Compound 112] | > 20 | < 1 | 212 |
| Cc1nc2cc(NC(=O)c3cc4sc(N5CCCC(C(=O)N(C)C)C5)nc4s3)ccc2o1 (stereo not drawn) [Compound 178] | 1 to 20 (≈ 0.47 to 9.39 µg/mL) | 1 to 20 (≈ 0.47 to 9.39 µg/mL) | 133.6 |
| Cc1nc2cc(NC(=O)c3cc4sc(N5CCOCC5)nc4s3)c(F)cc2o1 [Compound 181] | > 20 | > 20 | 287 |
| COc1ccc(NC(=O)c2cc3sc(N4CCN(C)CC4)nc3s2)cc1 [Compound 110] | 1 to 20 (≈ 0.389 to 7.77 µg/mL) | < 1 | 219.8 |
| Cc1nc2cc(NC(=O)c3cc4sc(N5CCC(CO)CC5)nc4s3)ccc2o1 [Compound 144] | < 1 | < 1 | 196.4 |
| COC(=O)c1ccc(CCNC(=O)c2cc3sc(N4CCCCC4)nc3s2)cc1 [Compound 43] | 1 to 20 (≈ 0.43 to 8.59 µg/mL) | < 1 | 212.9 |
| COc1ccc(NC(=O)c2cc3sc(N4CCCC4)nc3s2)cc1 [Compound 78] | < 1 | < 1 | 274.4 |
| O=C(Nc1ccc(F)nc1)c1cc2sc(N3CCOCC3)nc2s1 [Compound 84] | < 1 | < 1 | 262.3 |
| Cc1nn(C)cc1-c1ccc(NC(=O)c2cc3sc(N4CCOCC4)nc3s2)cc1 [Compound 167] | 1 to 20 (≈ 0.44 to 8.79 µg/mL) | < 1 | 245 |
| Cc1nc2cc(NC(=O)c3cc4sc(N5CCOC(c6ccccc6)C5)nc4s3)ccc2o1 (stereo not drawn) [Compound 174] | 1 to 20 (≈ 0.477 to 9.53 µg/mL) | < 1 | 223.5 |
| Cn1ccc(-c2ccc(NC(=O)c3cc4sc(N5CCOCC5)nc4s3)cc2)n1 [Compound 145] | 1 to 20 (≈ 0.426 to 8.51 µg/mL) | < 1 | 314 |
| CN(C)C(=O)C1CCN(c2nc3sc(C(=O)Nc4ccc(F)cc4)cc3s2)CC1 [Compound 136] | < 1 | < 1 | 296.2 |
